We go through 10 compounds from ChEMBL document CHEMBL1201862, “PubChem BioAssay data set” (2004).

Test systems include DU-145; SNB-75; K562; MOLT-4; OVCAR-5; NCI-H23; MDA-MB-435; T47D; HOP-62; 786-0; SF-295; LOX IMVI; RPMI-8226; OVCAR-4; IGROV-1; ACHN; Malme-3M; HOP-92; NCI-H460; COLO 205.
Common to all, as to assay: DTP human tumour cell line panel, 48 h

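A five-concentration, 48-hour dose response in 96-well plates underlies each endpoint, interpolated linearly between surrounding concentrations. GI50 marks 50% less growth.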 Calls of active or inactive are those of the source. Cut-off read from the data, not from the text of the source: active = GI50 up to about 1.1 µM and inactive = higher. A value given as a limit tells only on which side of the number the result lay.

As usually defined, the GI50 is the concentration giving 50% growth inhibition. Turning to `COc1cc(/C=C/C(=O)Oc2ccccc2)ccc1C(=O)O/C=C/c1ccccc1`, the GI50 in the assay on DU-145 is > 100 µM (inactive); in the assay on SNB-75 it was > 100 µM (inactive); with K562, > 100 µM (inactive); in the assay with MOLT-4, > 93.3 µM (inactive); with OVCAR-5 it was > 100 µM (inactive); with NCI-H23 it was > 100 µM (inactive). For the same compound, the GI50 in the assay with MDA-MB-435, in the assay on T47D, in the assay with HOP-62, in the assay with 786-0, in the assay on SF-295 and in the assay with LOX IMVI was > 100 µM (inactive) each time. For the same compound, the GI50 in the assay with RPMI-8226, in the assay with OVCAR-4, in the assay on IGROV-1, in the assay on ACHN, with Malme-3M and in the assay with HOP-92 was > 100 µM (inactive) in each case. Moreover, the GI50 in the assay on NCI-H460 and with COLO 205 was > 100 µM (inactive) each time.
For `C/C(=N/NC(=S)NCCc1ccccn1)c1cnccn1`, the GI50 in the assay with DU-145 was 17.8 µM (inactive); with SNB-75, > 100 µM (inactive); in the assay with MOLT-4, 3.26 µM (inactive); with OVCAR-5 it was 79.3 µM (inactive); with NCI-H23, 38.6 µM (inactive); with MDA-MB-435, 53.3 µM (inactive). Further, the GI50 with T47D is 6.05 µM (inactive); with HOP-62, 31.2 µM (inactive); in the assay on 786-0 it was 14.6 µM (inactive); with SF-295, 24.4 µM (inactive); with LOX IMVI it was 9.66 µM (inactive); in the assay with RPMI-8226 it was 13.3 µM (inactive). The GI50 with OVCAR-4 is 24.4 µM (inactive); with IGROV-1 it was 19 µM (inactive); in the assay with ACHN, 20.7 µM (inactive); in the assay with Malme-3M, 6.37 µM (inactive); with HOP-92, 49.3 µM (inactive); in the assay on NCI-H460, 52.5 µM (inactive). For the same compound, the GI50 with COLO 205 is 3.8 µM (inactive).
Consider `CSc1ccc(-c2cc(-c3nc4ccccc4[nH]3)nc(N)c2C#N)cc1`, for which the GI50 is 17.4 µM (inactive) with DU-145; 23.1 µM (inactive) in the assay on SNB-75; 18.4 µM (inactive) in the assay with K562; 8.39 µM (inactive) with MOLT-4; 26.6 µM (inactive) with OVCAR-5; 24.9 µM (inactive) with NCI-H23. Also, the GI50 was 17.7 µM (inactive) with MDA-MB-435; 13.5 µM (inactive) with T47D; 19.1 µM (inactive) in the assay on HOP-62; 26.1 µM (inactive) in the assay on 786-0; 21.9 µM (inactive) in the assay on SF-295; 18.2 µM (inactive) in the assay on LOX IMVI. In addition, the GI50 in the assay on RPMI-8226 was 21.4 µM (inactive); in the assay with IGROV-1, 8.67 µM (inactive); in the assay with ACHN it was 19.9 µM (inactive); with Malme-3M, 19.4 µM (inactive); with HOP-92, 8.55 µM (inactive); with NCI-H460, 22 µM (inactive). Also, in the assay with COLO 205, the GI50 is 15.9 µM (inactive).
Turning to `O=C(Nc1cccc(NC(=O)C(=O)C2CCC3=C(Sc4ccccc4N3)C2=O)n1)C(=O)C1CCC2=C(Sc3ccccc3N2)C1=O` (stereo not given), the GI50 with DU-145 was > 100 µM (inactive); with SNB-75, 9.68 µM (inactive); in the assay on K562, 43.7 µM (inactive); in the assay on MOLT-4, 68.9 µM (inactive); in the assay on OVCAR-5, > 100 µM (inactive); with NCI-H23, 68.9 µM (inactive). For the same compound, the GI50 in the assay on MDA-MB-435 was 85.9 µM (inactive); with T47D, 50.4 µM (inactive); in the assay on 786-0, 91.8 µM (inactive); with SF-295 it was 42.6 µM (inactive); with LOX IMVI it was 73.1 µM (inactive); with RPMI-8226, 40.2 µM (inactive). The GI50 is 18.9 µM (inactive) in the assay on OVCAR-4; 32.9 µM (inactive) with IGROV-1; 76.6 µM (inactive) in the assay on ACHN; > 100 µM (inactive) with Malme-3M; > 100 µM (inactive) in the assay on HOP-92; 65.9 µM (inactive) in the assay with NCI-H460. Besides, the GI50 in the assay with COLO 205 is 37.2 µM (inactive).
As for `C/C(Nc1ccc(Cl)cc1)=C1/CCOC1=O`, the GI50 was 6.31 µM (inactive) with DU-145; > 67.8 µM (inactive) in the assay with SNB-75; 0.346 µM (active) in the assay with K562; 1.93 µM (inactive) in the assay on MOLT-4; > 20.5 µM (inactive) in the assay on OVCAR-5; > 100 µM (inactive) with NCI-H23. Further, the GI50 is 0.698 µM (active) in the assay on MDA-MB-435; 4.91 µM (inactive) in the assay with T47D; > 100 µM (inactive) in the assay with 786-0; 6.7 µM (inactive) in the assay with SF-295; 0.277 µM (active) in the assay on LOX IMVI; 1.27 µM (inactive) with RPMI-8226. Also, the GI50 was > 100 µM (inactive) in the assay on OVCAR-4; > 23 µM (inactive) with IGROV-1; 13.7 µM (inactive) in the assay with ACHN; > 100 µM (inactive) with Malme-3M; > 100 µM (inactive) in the assay with HOP-92; > 31.4 µM (inactive) with NCI-H460. For the same compound, in the assay with COLO 205, the GI50 is 1.44 µM (inactive).
As for `CC1(C)COC(c2cccc(C3=NC(C)(C)CO3)c2Br)=N1`, the GI50 in the assay with DU-145 was > 100 µM (inactive); in the assay with SNB-75 it was 3.05 µM (inactive); with K562, > 100 µM (inactive); in the assay on MOLT-4, > 100 µM (inactive); in the assay on OVCAR-5, > 100 µM (inactive); in the assay on NCI-H23 it was > 100 µM (inactive). Further, the GI50 with MDA-MB-435, with T47D, in the assay with HOP-62, in the assay with 786-0, in the assay on LOX IMVI and with RPMI-8226 was > 100 µM (inactive) throughout. In addition, the GI50 in the assay on OVCAR-4, in the assay on IGROV-1, in the assay with ACHN, in the assay with Malme-3M, in the assay with HOP-92 and in the assay with NCI-H460 was > 100 µM (inactive) in each case. For the same compound, the GI50 in the assay with COLO 205 was > 100 µM (inactive).
As for `O=[N+]([O-])C(=C(Nc1ccccc1)Nc1ccccc1)C(Cl)=C(Cl)Cl`, the GI50 in the assay on DU-145 was 17.5 µM (inactive); in the assay on SNB-75 it was 19.1 µM (inactive); in the assay on K562, 10.3 µM (inactive); with OVCAR-5, 23.1 µM (inactive); in the assay on NCI-H23 it was 13.6 µM (inactive); in the assay on MDA-MB-435, 15.3 µM (inactive). The GI50 with T47D is 19.3 µM (inactive); with HOP-62, 21.9 µM (inactive); in the assay on 786-0 it was 15.8 µM (inactive); in the assay on SF-295 it was 17.8 µM (inactive); with LOX IMVI, 8.77 µM (inactive); with RPMI-8226 it was 32.8 µM (inactive). For the same compound, the GI50 in the assay on OVCAR-4 is 12.2 µM (inactive); in the assay on IGROV-1 it was 12.9 µM (inactive); with ACHN it was 15.9 µM (inactive); with Malme-3M it was 19.6 µM (inactive); in the assay with HOP-92, 15.8 µM (inactive); with NCI-H460, 16.1 µM (inactive). For the same compound, the GI50 in the assay on COLO 205 was 17.5 µM (inactive).
For the compound `CC1=C[C@@H](C)C[C@]2(C)CC[C@H](O2)[C@]23CC[C@](CO)(C[C@H](O2)[C@@H]2O[C@@](C)(CC2=O)[C@@H](O)[C@H]2CC[C@@]4(CCC[C@@H](O4)[C@H](C)C(=O)O[C@H]4C[C@H]([C@]5(O)OCC[C@H](C)[C@@H]5O)O[C@H]4C=C1)O2)O3`, the GI50 was 0.247 µM (active) in the assay with DU-145; 0.001 µM (active) with SNB-75; 0.0183 µM (active) with K562; 0.0316 µM (active) with OVCAR-5; 0.0935 µM (active) in the assay with NCI-H23; 0.0249 µM (active) in the assay with MDA-MB-435. Moreover, the GI50 was 0.427 µM (active) with T47D; 0.00345 µM (active) in the assay with HOP-62; 0.00843 µM (active) with 786-0; 0.00341 µM (active) in the assay on SF-295; 0.001 µM (active) in the assay on LOX IMVI; > 10 µM (inactive) in the assay on RPMI-8226. Also, the GI50 with OVCAR-4 is 0.0179 µM (active); in the assay on IGROV-1 it was 0.00373 µM (active); with ACHN, 0.0249 µM (active); with Malme-3M it was 0.00873 µM (active); in the assay with HOP-92, 0.00163 µM (active); with NCI-H460, 0.0333 µM (active). Besides, the GI50 in the assay on COLO 205 was 0.00192 µM (active).
Consider `CSC1NNC2(C(=O)N1)c1ccccc1-c1ccccc12` (stereo not given), for which the GI50 in the assay with DU-145, in the assay on SNB-75, in the assay on K562, in the assay on MOLT-4, in the assay with NCI-H23 and in the assay on MDA-MB-435 was > 10 µM (inactive) in each case. Further, the GI50 is 5.53 µM (inactive) in the assay with T47D; > 10 µM (inactive) in the assay on HOP-62; > 10 µM (inactive) in the assay on 786-0; > 10 µM (inactive) in the assay on SF-295; > 10 µM (inactive) in the assay on LOX IMVI; > 10 µM (inactive) in the assay on RPMI-8226. Also, the GI50 in the assay on OVCAR-4, with IGROV-1, in the assay on ACHN, with Malme-3M, in the assay on HOP-92 and in the assay with NCI-H460 was > 10 µM (inactive) throughout. Besides, in the assay on COLO 205, the GI50 was > 10 µM (inactive).
With `Cc1c(C)c2c(c(N)c1C#N)C(=O)N(NC(=O)c1ccccc1)C2=O`, the GI50 in the assay with DU-145, in the assay on SNB-75, with K562, in the assay with MOLT-4, with OVCAR-5 and in the assay with MDA-MB-435 was > 100 µM (inactive) throughout. Further, the GI50 is 24.8 µM (inactive) with T47D; > 100 µM (inactive) in the assay on 786-0; > 100 µM (inactive) with SF-295; > 100 µM (inactive) with LOX IMVI; > 100 µM (inactive) in the assay with RPMI-8226; > 100 µM (inactive) in the assay with OVCAR-4. Besides, the GI50 in the assay with IGROV-1, with ACHN, in the assay on Malme-3M, in the assay on HOP-92, in the assay on NCI-H460 and in the assay with COLO 205 was > 100 µM (inactive) each time.
